Consider 2 molecules from patent US10738019B2, “Compound including basic dye and amino acid, hair dyeing dye, and hair dyeing composition” (HODOGAYA CHEMICAL CO., LTD., priority 2018, dated 2020).

The nature of the series: Water solubility, foaming property and hair feel during hair dyeing. Type of series: physicochemical. As to conditions: for hair dyeing (dyeing gel, pH 6 aqueous solution). As for the experimental part:
Subsequently, Human White hair 100% BM-W manufactured by Beaulax Co., Ltd. was used as hair to be dyed. Two parts by mass of the dyeing gel was taken with respect to 1 part by mass of the hair and applied to the hair uniformly using a comb, and the hair was dyed at 40° C. for 10 minutes and washed with water.

Consider `CC1=CC(=C(c2ccc(N)c(C)c2)c2ccc(N)c(C)c2)C=CC1=N` [Compound (A-3)], for which the water solubility result is given as “sufficient water solubility for hair dyeing”.
The value for `C[N+](C)(C)c1ccc2ccc(O)c(N=Nc3ccc(N)cc3)c2c1` [Compound (A-5)] was “sufficient water solubility for hair dyeing”.
